Results as given in the CheMixHub viscosity set.
“And” between values parts separate entries of the source, which are not always exact repeats. Equal entries are not always repeated. ± gives the uncertainty stated by the source.

How the values were obtained:
[1] = xn = mol fraction of the nth substance listed

O=CN1CCOCC1
viscosity (298.15 K, 101 kPa): 7.656 ± 0.15 mPa·s
viscosity (298.15 K, 101.3 kPa): 7.613 ± 0.052 mPa·s
viscosity (303.15 K, 101 kPa): 6.626 ± 0.18 mPa·s and 6.598 ± 0.13 mPa·s
viscosity (308.15 K, 101 kPa): 5.731 ± 0.16 mPa·s
viscosity (313.15 K, 101 kPa): 5.141 ± 0.14 mPa·s and 5.068 ± 0.11 mPa·s
viscosity (323.15 K, 101 kPa): 4.036 ± 0.089 mPa·s

CCCCCCCCCCCCCCCCCCCc1ccccc1
viscosity (313.15 K, 101 kPa): 8.33 ± 0.07 mPa·s

O=C[C@H](O)[C@@H](O)[C@H](O)[C@H](O)CO + O
viscosity ([1]; 293.15 K, 101 kPa, x1 = 0.002): 1.043 ± 0.022 mPa·s
viscosity ([1]; 293.15 K, 101 kPa, x1 = 0.0026): 1.079 ± 0.011 mPa·s
viscosity ([1]; 293.15 K, 101 kPa, x1 = 0.005): 1.13 ± 0.024 mPa·s
viscosity ([1]; 293.15 K, 101 kPa, x1 = 0.011): 1.24 ± 0.08 mPa·s and 1.34 ± 0.1 mPa·s
viscosity ([1]; 293.15 K, 101 kPa, x1 = 0.0244): 1.95 ± 0.12 mPa·s
viscosity ([1]; 293.15 K, 101 kPa, x1 = 0.0411): 3.01 ± 0.18 mPa·s
viscosity ([1]; 293.15 K, 101 kPa, x1 = 0.0625): 5.4 ± 0.33 mPa·s
viscosity ([1]; 293.15 K, 101.3 kPa, x1 = 0.001): 1.021 ± 0.022 mPa·s
viscosity ([1]; 298.15 K, 100 kPa, x1 = 0.0009): 1.019 ± 0.0084 mPa·s
viscosity ([1]; 298.15 K, 101 kPa, x1 = 0.0002): 0.9013 ± 0.09 mPa·s
viscosity ([1]; 298.15 K, 101 kPa, x1 = 0.0005): 0.9169 ± 0.092 mPa·s
viscosity ([1]; 298.15 K, 101 kPa, x1 = 0.001): 0.9634 ± 0.097 mPa·s
viscosity ([1]; 298.15 K, 101 kPa, x1 = 0.0018): 0.9874 ± 0.099 mPa·s
viscosity ([1]; 298.15 K, 101 kPa, x1 = 0.002): 0.9826 ± 0.098 mPa·s
viscosity ([1]; 298.15 K, 101 kPa, x1 = 0.00413): 0.9934 ± 0.025 mPa·s
viscosity ([1]; 298.15 K, 101 kPa, x1 = 0.005): 1.015 ± 0.021 mPa·s
viscosity ([1]; 298.15 K, 101 kPa, x1 = 0.00623): 1.03 ± 0.026 mPa·s
viscosity ([1]; 298.15 K, 101 kPa, x1 = 0.011): 1.15 ± 0.08 mPa·s
viscosity ([1]; 298.15 K, 101 kPa, x1 = 0.02): 1.42 ± 0.013 mPa·s
viscosity ([1]; 298.15 K, 101 kPa, x1 = 0.0244): 1.68 ± 0.1 mPa·s
viscosity ([1]; 298.15 K, 101 kPa, x1 = 0.0411): 2.48 ± 0.15 mPa·s
viscosity ([1]; 298.15 K, 101 kPa, x1 = 0.0625): 4.48 ± 0.27 mPa·s
viscosity ([1]; 298.15 K, 101 kPa, x1 = 0.0909): 8.75 ± 0.53 mPa·s and 12.75 ± 0.77 mPa·s
viscosity ([1]; 303.15 K, 100 kPa, x1 = 0.0009): 0.9332 ± 0.0081 mPa·s
viscosity ([1]; 303.15 K, 101 kPa, x1 = 0.002): 0.8392 ± 0.017 mPa·s
viscosity ([1]; 303.15 K, 101 kPa, x1 = 0.004): 0.8723 ± 0.018 mPa·s
viscosity ([1]; 303.15 K, 101 kPa, x1 = 0.005): 0.9084 ± 0.019 mPa·s
viscosity ([1]; 303.15 K, 101.3 kPa, x1 = 0.001): 0.814 ± 0.018 mPa·s
viscosity ([1]; 308.15 K, 100 kPa, x1 = 0.0009): 0.8522 ± 0.0078 mPa·s
viscosity ([1]; 308.15 K, 101 kPa, x1 = 0.00209): 0.7871 ± 0.02 mPa·s
viscosity ([1]; 308.15 K, 101 kPa, x1 = 0.004): 0.7909 ± 0.017 mPa·s
viscosity ([1]; 308.15 K, 101 kPa, x1 = 0.00413): 0.8216 ± 0.021 mPa·s
viscosity ([1]; 308.15 K, 101 kPa, x1 = 0.005): 0.8313 ± 0.017 mPa·s
viscosity ([1]; 308.15 K, 101 kPa, x1 = 0.008982): 0.911 ± 0.019 mPa·s
viscosity ([1]; 308.15 K, 101 kPa, x1 = 0.011): 0.98 ± 0.06 mPa·s and 1.05 ± 0.07 mPa·s
viscosity ([1]; 308.15 K, 101 kPa, x1 = 0.01441): 1.037 ± 0.022 mPa·s
viscosity ([1]; 308.15 K, 101 kPa, x1 = 0.0179): 1.134 ± 0.024 mPa·s
viscosity ([1]; 308.15 K, 101 kPa, x1 = 0.02): 1.133 ± 0.0097 mPa·s and 1.086 ± 0.11 mPa·s
viscosity ([1]; 308.15 K, 101 kPa, x1 = 0.02311): 1.278 ± 0.028 mPa·s
viscosity ([1]; 308.15 K, 101 kPa, x1 = 0.0244): 1.34 ± 0.08 mPa·s
viscosity ([1]; 308.15 K, 101 kPa, x1 = 0.02991): 1.442 ± 0.032 mPa·s
viscosity ([1]; 308.15 K, 101 kPa, x1 = 0.03509): 1.711 ± 0.038 mPa·s
viscosity ([1]; 308.15 K, 101 kPa, x1 = 0.0411): 1.94 ± 0.12 mPa·s
viscosity ([1]; 308.15 K, 101 kPa, x1 = 0.05203): 2.579 ± 0.059 mPa·s
viscosity ([1]; 308.15 K, 101 kPa, x1 = 0.0591): 3.084 ± 0.071 mPa·s
viscosity ([1]; 308.15 K, 101 kPa, x1 = 0.0625): 3.31 ± 0.2 mPa·s
viscosity ([1]; 308.15 K, 101 kPa, x1 = 0.0909): 6.58 ± 0.4 mPa·s and 9 ± 0.55 mPa·s
viscosity ([1]; 313.15 K, 100 kPa, x1 = 0.0009): 0.7853 ± 0.0076 mPa·s
viscosity ([1]; 313.15 K, 101 kPa, x1 = 0.002): 0.6943 ± 0.015 mPa·s
viscosity ([1]; 313.15 K, 101 kPa, x1 = 0.004): 0.7341 ± 0.015 mPa·s
viscosity ([1]; 313.15 K, 101 kPa, x1 = 0.005): 0.7858 ± 0.016 mPa·s
viscosity ([1]; 313.15 K, 101 kPa, x1 = 0.011): 0.81 ± 0.05 mPa·s and 0.97 ± 0.06 mPa·s
viscosity ([1]; 313.15 K, 101 kPa, x1 = 0.02): 1.022 ± 0.0089 mPa·s and 0.9825 ± 0.098 mPa·s
viscosity ([1]; 313.15 K, 101 kPa, x1 = 0.0244): 1.19 ± 0.07 mPa·s
viscosity ([1]; 313.15 K, 101 kPa, x1 = 0.0411): 1.69 ± 0.1 mPa·s
viscosity ([1]; 313.15 K, 101 kPa, x1 = 0.0625): 2.96 ± 0.18 mPa·s
viscosity ([1]; 313.15 K, 101 kPa, x1 = 0.0909): 4.88 ± 0.3 mPa·s and 5.67 ± 0.35 mPa·s
viscosity ([1]; 313.15 K, 101 kPa, x1 = 0.13): 13.08 ± 0.79 mPa·s and 11.8 ± 3.1 mPa·s
viscosity ([1]; 313.15 K, 101.3 kPa, x1 = 0.001): 0.671 ± 0.014 mPa·s
viscosity ([1]; 318.15 K, 101 kPa, x1 = 0.008982): 0.756 ± 0.016 mPa·s
viscosity ([1]; 318.15 K, 101 kPa, x1 = 0.011): 0.71 ± 0.04 mPa·s and 0.85 ± 0.05 mPa·s
viscosity ([1]; 318.15 K, 101 kPa, x1 = 0.01441): 0.861 ± 0.018 mPa·s
viscosity ([1]; 318.15 K, 101 kPa, x1 = 0.0179): 0.941 ± 0.02 mPa·s
viscosity ([1]; 318.15 K, 101 kPa, x1 = 0.02): 0.9234 ± 0.0081 mPa·s and 0.8774 ± 0.088 mPa·s
viscosity ([1]; 318.15 K, 101 kPa, x1 = 0.02311): 1.061 ± 0.023 mPa·s
viscosity ([1]; 318.15 K, 101 kPa, x1 = 0.0244): 1.05 ± 0.06 mPa·s
viscosity ([1]; 318.15 K, 101 kPa, x1 = 0.02991): 1.197 ± 0.026 mPa·s
viscosity ([1]; 318.15 K, 101 kPa, x1 = 0.03509): 1.42 ± 0.032 mPa·s
viscosity ([1]; 318.15 K, 101 kPa, x1 = 0.0411): 1.43 ± 0.09 mPa·s
viscosity ([1]; 318.15 K, 101 kPa, x1 = 0.05203): 2.141 ± 0.049 mPa·s
viscosity ([1]; 318.15 K, 101 kPa, x1 = 0.0591): 2.561 ± 0.06 mPa·s
viscosity ([1]; 318.15 K, 101 kPa, x1 = 0.0625): 2.47 ± 0.15 mPa·s
viscosity ([1]; 318.15 K, 101 kPa, x1 = 0.0909): 3.91 ± 0.24 mPa·s and 4.65 ± 0.28 mPa·s
viscosity ([1]; 318.15 K, 101 kPa, x1 = 0.13): 10.56 ± 0.64 mPa·s and 8 ± 1.9 mPa·s
viscosity ([1]; 323.15 K, 101 kPa, x1 = 0.011): 0.72 ± 0.04 mPa·s and 0.78 ± 0.05 mPa·s
viscosity ([1]; 323.15 K, 101 kPa, x1 = 0.02): 0.8435 ± 0.0075 mPa·s and 0.7914 ± 0.079 mPa·s
viscosity ([1]; 323.15 K, 101 kPa, x1 = 0.0244): 0.97 ± 0.06 mPa·s
viscosity ([1]; 323.15 K, 101 kPa, x1 = 0.0411): 1.29 ± 0.08 mPa·s
viscosity ([1]; 323.15 K, 101 kPa, x1 = 0.0625): 2.19 ± 0.13 mPa·s
viscosity ([1]; 323.15 K, 101 kPa, x1 = 0.0909): 3.68 ± 0.22 mPa·s and 4.56 ± 0.28 mPa·s
viscosity ([1]; 323.15 K, 101 kPa, x1 = 0.13): 8.63 ± 0.52 mPa·s and 7.5 ± 1.3 mPa·s
